Experimental data from US20260297118A1, “SUBSTITUTED PYRIMIDINONE AND AZAPYRIMIDINONE COMPOUNDS, COMPOSITIONS, AND USES THEREOF” (LAKEWOOD AMEDEX, INC., priority 2023, published 2026).
Where two headings read alike, the source gives them in different places.

Tests used:
Format in all cases: cell-based
[1] = tested on: Staphylococcus aureus (43330); test: MIC, broth microdilution, Staphylococcus aureus (43330); details: pH 3, Mueller Hinton Broth, 18 to 24 hours
Procedure: (§1) MIC testing is conducted using the broth (Mueller Hinton Broth) microdilution procedures relevant to each organism group as established by the Clinical and Laboratory Standards Institute (CLSI; 3-7). MIC plates are prepared in accordance with CLSI (3-7). To prepare the test plates, automated liquid handlers are used to conduct serial dilutions and liquid transfers. Automated liquid handlers utilized in this study include the Multidrop 384 (Labsystems, Helsinki, Finland) and the Biomek 2000 (Beckman Coulter, Fullerton CA). The solution is diluted to desired pH using 1 M Citric Acid or 1 M NaOH buffer. A standardized inoculum of each test organism is prepared per CLSI methods (3, 5-7) to equal a 0.5 McFarland standard in the appropriate media followed by an additional 1:20 dilution (1:10 for anaerobes).
(§2) The plates are then inoculated with 10 μL of the diluted 0.5 McFarland suspension using the Biomek 2000 from low to high drug concentration, resulting in a final concentration of approximately 5×10^5 CFU/mL per well. An un-inoculated plate is incubated for the purpose of assessing solubility of the drug in the test media. The plates are stacked 3 to 4 high, covered with a sterile lid on the top plate, and incubated for 18 to 24 hours according to CLSI. The MIC is recorded as the lowest concentration of respective compound that inhibited visible growth of the organism.

Escherichia coli (25922) = test: MIC, broth microdilution, Escherichia coli (25922); details: pH 3, Mueller Hinton Broth, 18 to 24 hours
Procedure: as §1, §2

[2] = tested on: Pseudomonas aeruginosa (27853); test: MIC, broth microdilution, Pseudomonas aeruginosa (27853); details: pH 3, Mueller Hinton Broth, 18 to 24 hours
Procedure: as §1, §2

Candida albicans (22972) = test: MIC, broth microdilution, Candida albicans (22972); details: pH 3, Mueller Hinton Broth, 18 to 24 hours
Procedure: as §1, §2

E. faecalis ATCC-29212 = test: MIC, broth microdilution, E. faecalis ATCC-29212; design: unit not given beside the values; details: E. faecalis ATCC-29212, Gram +ve; pH 3; 18 to 24 hours
Procedure: as §1, §2

E. faecalis MMX-3353 = test: MIC, broth microdilution, E. faecalis MMX-3353; details: E. faecalis MMX-3353, Gram +ve; pH 3; 18 to 24 hours
Procedure: as §1, §2

E. faecium ATCC-35667 = test: MIC, broth microdilution, E. faecium ATCC-35667; details: E. faecium ATCC-35667, Gram +ve; pH 3; 18 to 24 hours
Procedure: as §1, §2

E. faecium MMX-3355 = test: MIC, broth microdilution, E. faecium MMX-3355; design: unit not given beside the values; details: E. faecium MMX-3355, Gram +ve; pH 3; 18 to 24 hours
Procedure: as §1, §2

S. agalactiae ATCC-13813 = test: MIC, broth microdilution, S. agalactiae ATCC-13813; design: unit not given beside the values; details: S. agalactiae ATCC-13813, Gram +ve; pH 3; 18 to 24 hours
Procedure: as §1, §2

S. aureus ATCC -3591 = test: MIC, broth microdilution, S. aureus ATCC -3591; design: unit not given beside the values; details: S. aureus ATCC -3591, Gram +ve; pH 3; 18 to 24 hours
Procedure: as §1, §2

S. aureus ATCC-29213 = test: MIC, broth microdilution, S. aureus ATCC-29213; design: unit not given beside the values; details: S. aureus ATCC-29213, Gram +ve; pH 3; 18 to 24 hours
Procedure: as §1, §2

[3] = tested on: S. dysgalactiae ATCC-6644; test: MIC, broth microdilution, S. dysgalactiae ATCC-6644; design: unit not given beside the values; details: S. dysgalactiae ATCC-6644, Gram +ve; pH 3; 18 to 24 hours
Procedure: as §1, §2

[4] = tested on: S. haemolyticus ATCC-29970; test: MIC, broth microdilution, S. haemolyticus ATCC-29970; details: S. haemolyticus ATCC-29970, Gram +ve; pH 3; 18 to 24 hours
Procedure: as §1, §2

S. pyogenes ATCC-49399 = test: MIC, broth microdilution, S. pyogenes ATCC-49399; design: unit not given beside the values; details: S. pyogenes ATCC-49399, Gram +ve; pH 3; 18 to 24 hours
Procedure: as §1, §2

[5] = tested on: S. saprophyticus ATCC-49907; test: MIC, broth microdilution, S. saprophyticus ATCC-49907; design: unit not given beside the values; details: S. saprophyticus ATCC-49907, Gram +ve; pH 3; 18 to 24 hours
Procedure: as §1, §2

A. baumannii ATCC-19606 = test: MIC, broth microdilution, A. baumannii ATCC-19606; design: unit not given beside the values; details: A. baumannii ATCC-19606, Gram −ve; pH 3; 18 to 24 hours
Procedure: as §1, §2

[6] = tested on: A. radioresistens MMX-8551; test: MIC, broth microdilution, A. radioresistens MMX-8551; design: unit not given beside the values; details: A. radioresistens MMX-8551, Gram −ve; pH 3; 18 to 24 hours
Procedure: as §1, §2

C. freundii CDC-0157 = test: MIC, broth microdilution, C. freundii CDC-0157; design: unit not given beside the values; details: C. freundii CDC-0157, Gram −ve; pH 3; 18 to 24 hours
Procedure: as §1, §2

C. striatum ATCC-6940 = test: MIC, broth microdilution, C. striatum ATCC-6940; details: C. striatum ATCC-6940, Gram +ve; pH 3; 18 to 24 hours
Procedure: as §1, §2

E. cloacae ATCC BAA-2468 = test: MIC, broth microdilution, E. cloacae ATCC BAA-2468; design: unit not given beside the values; details: E. cloacae ATCC BAA-2468, Gram −ve; pH 3; 18 to 24 hours
Procedure: as §1, §2

E. coli ATCC-25922 = test: MIC, broth microdilution, E. coli ATCC-25922; design: unit not given beside the values; details: E. coli ATCC-25922, Gram −ve; pH 3; 18 to 24 hours
Procedure: as §1, §2

E. coli MMX-8870 = test: MIC, broth microdilution, E. coli MMX-8870; details: E. coli MMX-8870, Gram −ve; pH 3; 18 to 24 hours
Procedure: as §1, §2

H. influenzae ATCC-49247 = test: MIC, broth microdilution, H. influenzae ATCC-49247; design: unit not given beside the values; details: H. influenzae ATCC-49247, Gram −ve; pH 3; 18 to 24 hours
Procedure: as §1, §2

[7] = tested on: K. pneumoniae ATCC BAA-2146; test: MIC, broth microdilution, K. pneumoniae ATCC BAA-2146; design: unit not given beside the values; details: K. pneumoniae ATCC BAA-2146, Gram −ve; pH 3; 18 to 24 hours
Procedure: as §1, §2

K. pneumoniae ATCC-43816 = test: MIC, broth microdilution, K. pneumoniae ATCC-43816; design: unit not given beside the values; details: K. pneumoniae ATCC-43816, Gram −ve; pH 3; 18 to 24 hours
Procedure: as §1, §2

M. morganii CDC-0519 = test: MIC, broth microdilution, M. morganii CDC-0519; design: unit not given beside the values; details: M. morganii CDC-0519, Gram −ve; pH 3; 18 to 24 hours
Procedure: as §1, §2

P. aeruginosa ATCC-27853 = test: MIC, broth microdilution, P. aeruginosa ATCC-27853; design: unit not given beside the values; details: P. aeruginosa ATCC-27853, Gram −ve; pH 3; 18 to 24 hours
Procedure: as §1, §2

P. mirabilis CDC-0155 = test: MIC, broth microdilution, P. mirabilis CDC-0155; design: unit not given beside the values; details: P. mirabilis CDC-0155, Gram −ve; pH 3; 18 to 24 hours
Procedure: as §1, §2

## CCCCCCCCOP(=O)(O)OC[C@H]1O[C@@H](n2ccc(N)nc2=O)C[C@@H]1O [LAI-001, ((2R,3S,5R)-5-(4-amino-2-oxopyrimidin-1(2H)-yl)-3-hydroxytetrahydrofuran-2-yl)methyl octyl hydrogen phosphate]
[1]; read-out: MIC
  MIC: 20 mg/mL
Escherichia coli (25922); read-out: MIC
  MIC: 20 mg/mL
[2]; read-out: MIC
  MIC: 20 mg/mL
Candida albicans (22972); read-out: MIC
  MIC: 20 mg/mL

## CCCCCCOP(=O)(O)OC[C@H]1O[C@@H](n2ccc(N)nc2=O)C[C@@H]1O [LAI-002, ((2R,3S,5R)-5-(4-amino-2-oxopyrimidin-1(2H)-yl)-3-hydroxytetrahydrofuran-2-yl)methyl hexyl hydrogen phosphate]
[1]; read-out: MIC
  MIC: 25 mg/mL
Escherichia coli (25922); read-out: MIC
  MIC: 25 mg/mL
[2]; read-out: MIC
  MIC: 5 mg/mL
Candida albicans (22972); read-out: MIC
  MIC: 50 mg/mL

## CC(C)COP(=O)(O)OC[C@H]1O[C@@H](n2ccc(N)nc2=O)C[C@@H]1O [LAI-003, ((2R,3S,5R)-5-(4-amino-2-oxopyrimidin-1(2H)-yl)-3-hydroxytetrahydrofuran-2-yl)methyl isobutyl hydrogen phosphate]
[1]; read-out: MIC
  MIC: 20 mg/mL
Escherichia coli (25922); read-out: MIC
  MIC: 20 mg/mL
[2]; read-out: MIC
  MIC: 20 mg/mL
Candida albicans (22972); read-out: MIC
  MIC: 20 mg/mL

## CC(C)CCOP(=O)(O)OC[C@H]1O[C@@H](n2ccc(N)nc2=O)C[C@@H]1O [LAI-004, ((2R,3S,5R)-5-(4-amino-2-oxopyrimidin-1(2H)-yl)-3-hydroxytetrahydrofuran-2-yl)methyl isopentyl hydrogen phosphate]
[1]; read-out: MIC
  MIC: 50 mg/mL
Escherichia coli (25922); read-out: MIC
  MIC: 25 mg/mL
[2]; read-out: MIC
  MIC: 5 mg/mL
Candida albicans (22972); read-out: MIC
  MIC: 50 mg/mL

## Nc1ccn([C@H]2C[C@H](O)[C@@H](COP(=O)(O)OCCCC(F)(F)F)O2)c(=O)n1 [LAI-005, ((2R,3S,5R)-5-(4-amino-2-oxopyrimidin-1(2H)-yl)-3-hydroxytetrahydrofuran-2-yl)methyl (4,4,4-trifluorobutyl) hydrogen phosphate]
[1]; read-out: MIC
  MIC: 50 mg/mL
Escherichia coli (25922); read-out: MIC
  MIC: 25 mg/mL
[2]; read-out: MIC
  MIC: 25 mg/mL

## CCCCOP(=O)(O)OC[C@@H]1CC[C@H](n2ccc(N)nc2=O)O1 [LAI-007, ((2S,5R)-5-(4-amino-2-oxopyrimidin-1(2H)-yl)tetrahydrofuran-2-yl)methyl butyl hydrogen phosphate]
[1]; read-out: MIC
  MIC: 5 mg/mL
Escherichia coli (25922); read-out: MIC
  MIC: 25 mg/mL
[2]; read-out: MIC
  MIC: 5 mg/mL
E. faecalis ATCC-29212
  MIC: 6.25
E. faecalis MMX-3353
  MIC: 6.25
E. faecium ATCC-35667
  MIC: 6.25
E. faecium MMX-3355
  MIC: 6.25
S. agalactiae ATCC-13813
  MIC: 1.56
S. aureus ATCC -3591
  MIC: 6.25
S. aureus ATCC-29213
  MIC: 6.25
[3]
  MIC: 12.50
[4]
  MIC: 6.25
S. pyogenes ATCC-49399
  MIC: 3.13
[5]
  MIC: 3.13
A. baumannii ATCC-19606
  MIC: 6.25
[6]
  MIC: 6.25
C. freundii CDC-0157
  MIC: 3.13
C. striatum ATCC-6940
  MIC: 1.56
E. cloacae ATCC BAA-2468
  MIC: 6.25
E. coli ATCC-25922
  MIC: 6.25
E. coli MMX-8870
  MIC: 12.50
H. influenzae ATCC-49247
  MIC: 1.56
[7]
  MIC: 6.25
K. pneumoniae ATCC-43816
  MIC: 12.50
M. morganii CDC-0519
  MIC: 3.13
P. aeruginosa ATCC-27853
  MIC: 8.75
P. mirabilis CDC-0155
  MIC: 3.13

## CCCCOP(=O)(O)OC[C@H]1O[C@@H](n2ccc(NC)nc2=O)C[C@@H]1O [LAI-009, butyl (((2R,3S,5R)-3-hydroxy-5-(4-(N-methylamino)-2-oxopyrimidin-1(2H)-yl)tetrahydrofuran-2-yl)methyl) hydrogen phosphate]
[1]; read-out: MIC
  MIC: 25 mg/mL
Escherichia coli (25922); read-out: MIC
  MIC: 25 mg/mL
[2]; read-out: MIC
  MIC: 5 mg/mL
Candida albicans (22972); read-out: MIC
  MIC: 50 mg/mL

## (2R,3S,5R)-5-(4-amino-2-oxopyridizin-1(2H)-yl)-3-hydroxytetrahydrofuran-2-methyl butyl phosphate [LAI-011]
[1]
  MIC: 25 mg/mL
Escherichia coli (25922)
  MIC: 25 mg/mL
[2]
  MIC: 5 mg/mL
Candida albicans (22972)
  MIC: 5 mg/mL
